Laboratory results taken from publication PMC5391968, “Comparison of cell-based assays for the identification and evaluation of competitive CXCR4 inhibitors” (PLoS ONE, 2017).
Where two headings read alike, the source gives them in different places.

Key:
CXCR4 [1] = biological target: T1, CXCR4 (Homo sapiens, UniProt P61073); experiment: CXCR4 internalization assay in SUP-T1 cells; type: cell-based; set-up: CXCR4 receptors endogenously expressed on SUP-T1 cells; endogenous in cells; host or cells: SUP-T1 (ATCC)
Procedure: T-lymphoblastic SUP-T1 cells were washed twice in DPBS containing 2% FBS. Afterwards, cells were first incubated with the PE-labeled rat anti-human CXCR4 mAb (clone 1D9; 2 μg/ml in DPBS/2% FBS; BD Pharmingen) on ice for 45 minutes. […] SUP-T1 cells were subsequently washed once with ice cold DPBS and twice with ice cold assay buffer (see above) before being treated with test compound on ice for 15 minutes. […] Samples were immediately analyzed with the FACSCalibur flow cytometer (Becton Dickinson) whereby the measured fluorescence corresponds to the amount of […] CXCR4 receptors. Data were further analyzed with the FlowJo software.

HIV-1 NL4-3 (X4) [2] = experiment: microbe, parasite or virus in culture; type: cell-based; settings: MT-4 cells, four days post infection, MTS, mean ± SEM; read-out: IC50 HIV-1 (X4) NL4-3 replication, MT-4 cells
Procedure: The anti-HIV replication assays in MT-4 cells and PHA-stimulated PBMCs have been described previously. The HIV-1 T-tropic molecular clone NL4-3 (X4) was obtained from the National Institute of Allergy and Infectious Disease (NIAID) AIDS reagent program (Bethesda, MD, USA). Briefly, 5x10^4 MT-4 cells (in cell culture medium) were treated with different concentrations of compound at 37°C for 30 minutes. Afterwards, a 50% tissue culture infectious dose of the NL4-3 viral stock was added to the cell-compound mixtures. Four days post infection, the cytopathic effect was evaluated microscopically and cell viability was assessed with the MTS method, as described above.
In the antiviral assays, each condition was tested in duplicate.

CXCR4 [3] = biological target: T1, CXCR4; experiment: CXCL12/CXCR4 interaction on SUP-T1 cells; type: binding; set-up: CXCR4 receptors endogenously expressed on SUP-T1 cells; endogenous in cells; host or cells: SUP-T1 (ATCC); settings: high concentration, data not shown
[4] = system: CXCR4-positive Jurkat cells; experiment: cells; type: cell-based, human; settings: Jurkat cells, 6.25 nM CXCL12, two hours, mean ± SEM; read-out: IC50 Chemotaxis
Procedure: Jurkat cells were washed twice in assay buffer (see above), dispensed into a 96-well plate (5x10^5 cells per well) containing serial dilutions of compounds (in assay buffer) and incubated at RT in the dark for 10 minutes. […] Suspensions of 1.87x10^4 cells were transferred to the chemotaxis insert plate. […] After removal of the insert plate, migrated cells were centrifuged and resuspended in DPBS containing flow cytometry cell counting beads ([…] Fluorescent Particles; Gentaur, London, UK). Both migrated cells and particles were counted by flow cytometry (FACSCanto II; Becton Dickinson). Each compound concentration was tested in triplicate. Data were analyzed using the FlowJo software and the total number of migrated cells was calculated, according to the counted and total number of beads present in the sample.

HIV-1 NL4-3 (X4) [5] = experiment: microbe, parasite or virus in culture; type: cell-based; settings: PHA-stimulated PBMCs, ten days post infection, p24 Ag ELISA, mean ± SEM; read-out: IC50 HIV-1 (X4) NL4-3 replication, PHA-stimulated PBMCs
Procedure: PHA-stimulated PBMCs at 5x10^5 cells per sample, pre-incubated with test compounds dissolved in cell culture medium containing IL-2 (2 ng/ml; […] After three days, fresh culture medium with IL-2 was added. Ten days post infection cell supernatant was collected for HIV-1 p24 core antigen enzyme-linked immunosorbent assay (ELISA; Perkin Elmer, Boston, MA, USA) according to the manufacturer’s protocol. In the antiviral assays, each condition was tested in duplicate.

CXCR4 [6] = biological target: T1, CXCR4; experiment: CXCL12^AF647 binding assay on Jurkat cells; settings: Jurkat cells, 2.9 nM CXCL12^AF647, mean ± SEM; read-out: IC50 CXCL12-CXCR4 binding interaction
Procedure: In brief, Jurkat cells were washed twice in assay buffer [Hank’s Balanced Salt Solution (HBSS; Thermo Fisher Scientific), 20 mM HEPES buffer (Thermo Fisher Scientific), 0.2% bovine serum albumin (Sigma-Aldrich), pH 7.4]. […] Afterwards, cells were washed twice in assay buffer and subsequently fixed in 1% paraformaldehyde in Dulbecco’s phosphate buffered saline (DPBS). Samples were analyzed with the FACSArray flow cytometer (Becton Dickinson, NJ, USA). Data were further analyzed with the FlowJo Software (Ashland, Oregon, USA).

CXCR4 [7] = biological target: T1, CXCR4; experiment: Calcium mobilization assay (FLIPR Tetra) in U87.CD4.CXCR4 cells; type: cell-based; settings: U87.CD4.CXCR4 cells, 6.25 nM CXCL12, mean ± SEM; read-out: IC50 Calcium signaling (CXCL12-induced)
Procedure: U87.CD4.CXCR4 cells were seeded at 2x10^4 cells per well in gelatin-coated black-walled 96-well plates [0.1% gelatin in DPBS, incubated at RT for two hours and washed once with DPBS] and incubated at 37°C and 5% CO2 overnight. […] Fluo-2 AM loaded cells were washed with assay buffer before being incubated in the FLIPR Tetra system at 37°C for five minutes. At the start of the kinetic measurement, compounds were added to the cell plate by the internal robotic system followed by an incubation period of 10 minutes during which changes in the intracellular calcium level were continuously measured by the FLIPR Tetra. […] Each condition was measured in triplicate and repeated several times as further indicated (see Results).

CXCR4 [8] = biological target: T1, CXCR4; experiment: Labeled CXCR4 monoclonal antibody binding (clones 12G5, 1D9), flow cytometry; set-up: CXCR4 receptors endogenously expressed on SUP-T1 cells; endogenous in cells; host or cells: SUP-T1 (ATCC); settings: 12G5 clone and 1D9 clone, data not shown
Procedure: A feature of CXCR4, shared with many other GPCRs, is its internalization following agonist binding, also known as receptor endocytosis. To evaluate the potential inhibitory effect of the compounds on CXCR4 endocytosis, CXCR4 receptors endogenously expressed on SUP-T1 cells were first stained with a PE-labeled rat anti-human CXCR4 mAb targeting the receptor’s N-terminus (clone 1D9) and subsequently incubated with compound. […] In addition, when SUP-T1 cells were incubated with compound for thirty minutes at 4°C, and afterwards stained with the CXCR4 mAb (1D9) for thirty minutes at 4°C, no displacement (i.e. decrease in mAb binding) of the CXCR4 mAb was observed by flow cytometry (data not shown). […] In consequence, reduced cellular staining in our assay reflects the inhibitory effects of compounds on receptor internalization and not simply displacement of the CXCR4 mAb.

T1 sequence (P61073 whole entry): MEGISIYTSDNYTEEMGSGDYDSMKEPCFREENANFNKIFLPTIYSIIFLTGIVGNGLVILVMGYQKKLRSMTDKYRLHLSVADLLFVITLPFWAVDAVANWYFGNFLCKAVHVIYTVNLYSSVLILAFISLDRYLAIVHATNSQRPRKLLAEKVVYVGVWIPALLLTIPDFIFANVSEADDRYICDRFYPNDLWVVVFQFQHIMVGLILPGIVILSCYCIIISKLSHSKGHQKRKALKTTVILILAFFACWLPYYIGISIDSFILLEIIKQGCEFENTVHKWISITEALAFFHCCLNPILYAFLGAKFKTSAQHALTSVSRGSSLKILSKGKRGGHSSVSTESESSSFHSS

induction of CXCR4 internalization (agonistic effect) (CXCR4 [1]; 100 μM, in absence of CXCL12, data not shown): absence of an agonistic effect
IC50 (CXCR4 [1]; SUP-T1 cells, 6.25 nM CXCL12, 37°C 30 minutes, mean ± SEM): > 100 µM
IC50 (HIV-1 NL4-3 (X4) [2]): > 100 µM
IC50 [4]: > 100 µM
IC50 (HIV-1 NL4-3 (X4) [5]): 38.2 µM
IC50 (CXCR4 [6]): > 100 µM
IC50 (CXCR4 [7]): > 100 µM
reduction of labeled CXCR4 mAb binding (CXCR4 [8]): unable to reduce mAb binding
SMILES: c1ccc(NCc2ccc(CNc3ccccn3)cc2)nc1 [WZ811]
inhibition of the interaction between CXCL12 and CXCR4 (CXCR4 [3]): unable, even at high concentration, to inhibit the interaction between CXCL12 and CXCR4
